Assay results taken from publication PMC9929129, “Towards Translation of PqsR Inverse Agonists: From In Vitro Efficacy Optimization to In Vivo Proof‐of‐Principle” (Advanced Science, 2023).
Values joined by “and” are separate entries in the source; they are usually repeats but may differ in a detail not shown here. Identical values can stand only once. Like-named read-outs stand apart in the source and are kept apart here.

How the values were obtained:
5-HT1A (h) = molecular target: T1, 5-HT1A (h) (Homo sapiens, UniProt P08908); experiment: Cerep panel binding assay; details: agonist radioligand
T1 construct: purchased Eurofins Pharma Discovery (Cerep) SafetyScreen44 Panel, ITEM P270
Method: (§1) 1.4 Safety Pharmacology of Compound 24
(§2) 1.4.1 Cerep panel (Eurofins)
(§3) Compound 24 was further profiled for its off-target interactions against a panel of 44 targets. The
(§4) screening was done by Eurofins Pharma Discovery within the SafetyScreen44 Panel (Cerep, ITEM
(§5) P270). In all assays binding/functional inhibition was determined at 10 µM.
(§6) Table S6. […]

MAO-A = molecular target: T2, MAO-A (Rattus norvegicus, UniProt P21396); experiment: Cerep panel binding assay; details: antagonist radioligand
T2 construct: purchased Eurofins Pharma Discovery (Cerep) SafetyScreen44 Panel, ITEM P270
Method: as §1, §2, §3, §4, §5, §6

beta2 (h) = molecular target: T3, beta2 (h) (Homo sapiens, UniProt P07550); experiment: Cerep panel binding assay; details: antagonist radioligand
T3 construct: purchased Eurofins Pharma Discovery (Cerep) SafetyScreen44 Panel, ITEM P270
Method: as §1, §2, §3, §4, §5, §6

D1 (h) = molecular target: T4, D1 (h) (Homo sapiens, UniProt P21728); experiment: Cerep panel binding assay; details: antagonist radioligand
T4 construct: purchased Eurofins Pharma Discovery (Cerep) SafetyScreen44 Panel, ITEM P270
Method: as §1, §2, §3, §4, §5, §6

alpha2A (h) = molecular target: T5, alpha2A (h) (Homo sapiens, UniProt P08913); experiment: Cerep panel binding assay; details: antagonist radioligand
T5 construct: purchased Eurofins Pharma Discovery (Cerep) SafetyScreen44 Panel, ITEM P270
Method: as §1, §2, §3, §4, §5, §6

5-HT3 (h) = molecular target: T6, 5-HT3 (h) (Homo sapiens, UniProt P46098); experiment: Cerep panel binding assay; details: antagonist radioligand
T6 construct: purchased Eurofins Pharma Discovery (Cerep) SafetyScreen44 Panel, ITEM P270
Method: as §1, §2, §3, §4, §5, §6

kappa (h) (KOP) = molecular target: T7, kappa (h) (KOP) (Homo sapiens, UniProt P41145); experiment: Cerep panel binding assay; details: agonist radioligand
T7 construct: purchased Eurofins Pharma Discovery (Cerep) SafetyScreen44 Panel, ITEM P270
Method: as §1, §2, §3, §4, §5, §6

5-HT2A (h) = molecular target: T8, 5-HT2A (h) (Homo sapiens, UniProt P28223); experiment: Cerep panel binding assay; details: agonist radioligand
T8 construct: Eurofins Pharma Discovery (CRO that ran the assay) SafetyScreen44 Panel (Cerep, ITEM P270)
Method: as §1, §2, §3, §4, §5, §6

H2 (h) = molecular target: T9, H2 (h) (Homo sapiens, UniProt P25021); experiment: Cerep panel binding assay; details: antagonist radioligand
T9 construct: Eurofins Pharma Discovery (CRO that ran the assay) SafetyScreen44 Panel (Cerep, ITEM P270)
Method: as §1, §2, §3, §4, §5, §6

alpha1A (h) = molecular target: T10, alpha1A (h) (Homo sapiens, UniProt P35348); experiment: Cerep panel binding assay; details: antagonist radioligand
T10 construct: purchased Eurofins Pharma Discovery (Cerep) SafetyScreen44 Panel, ITEM P270
Method: as §1, §2, §3, §4, §5, §6

beta1 (h) = molecular target: T11, beta1 (h) (Homo sapiens, UniProt P08588); experiment: Cerep panel binding assay; details: agonist radioligand
T11 construct: purchased Eurofins Pharma Discovery (Cerep) SafetyScreen44 Panel, ITEM P270
Method: as §1, §2, §3, §4, §5, §6

[1] = molecular target: T12, CFTR cystic fibrosis transmembrane conductance regulator (Homo sapiens, UniProt P13569); experiment: Ion channel profiling at Charles River: CFTR; assay type: cell-based; details: expressed in CHO cells; read-out: ESTIMATED IC50
T12 construct: host or cells: CHO cells
Method: 1.4.3 Ion Channel Profiling at Charles River
Table S9. Compound 24 was tested against the following ion channels at Charles River Laboratories. […]
FASTPatch Assay IK (KCa3.1) calcium-activated potassium channel (human KCNN4 >30 gene) expressed in CHO cells […]
CFTR cystic fibrosis transmembrane conductance regulator (Cl-channel encoded by human CFTR gene) expressed in CHO cells >30 […]
FLIPR Assay expressed in HEK293 cells
GABAA α5/β3/γ2 ionotropic receptor (human GABRA5, GABRB3, >30 and GABRG2 genes, expressed in HEK293 cells

[2] = tested on: Pseudomonas aeruginosa strain PA14; experiment: Alkylquinolone quantification, strain PA14; assay type: cell-based
Method: 1.2.2 Pyocyanin assay in Pseudomonas aeruginosa
Inhibition of pyocyanin biosynthesis of compounds was measured spectrophotometrically as previously described.[2] Pseudomonas aeruginosa PA14 was grown in rich medium for 16 h under agitation with and without compound. Pyocyanin was extracted from cultures with chloroform, then re-extracted with 0.2 M HCl and quantified photometrically (520 nm). IC50 values were determined from dose-response curves of compounds using at least six different concentrations and fitting with non-linear regression analysis (OriginPro 2017–2020, Originlab Corporation).
1.2.3 Alkylquinolone quantification
Inhibition of alkylquinolone (AQ) signal molecule biosynthesis of compound 24 was analyzed via LC-ESI-MS/MS. Extracellular concentrations of the AQs PQS (2-heptyl-3-hydroxy-4-quinolone), HHQ (2-heptyl-4-quinolone), HQNO (N-oxo-2-heptyl-4-Hydroxyquinoline), 2-AA (2-aminoacetophenone) were measured from supernatants of cultures incubated with or without compound for 17 h. 5,6,7,8-Tetradeutero-2-heptyl-4(1H)-quinolone (HHQ-d4) was added as internal standard before sample preparation. IC50 values were calculated according to the procedure of the pyocyanin assay (see above). LC-ESI-MS/MS conditions were as follows: Dionex Ultimate 3000 HPLC instrument parameters: Zorbax Eclipse XDB 80 Å C18 5 µm 4.6 x 50 mm (Agilent, Santa Clara, CA, USA); eluent A – H2O with 0.1% trifluoroacetic acid (TFA), 0.1% pentafluoropropionic acid (PFPA), 0.1% heptafluorobutyric acid (HFBA); eluent B – acetonitrile with 0.1% TFA, 0.1% PFPA, 0.1% HFBA; isocratic 50% A; flow – 0.7 mL/min. TSQ Quantum Access Max (Thermo Fisher Scientific, Waltham, MA, USA) instrument parameters: Spray voltage 3500 V, vaporizer temperature 370 °C, sheath gas pressure 35 psi, aux gas pressure 30 psi, capillary temperature 270 °C, collision pressure 1.5 mTorr, positive ionization mode. For AQ analyte reaction monitoring parameters please see Table S1.
Table S1. LC-ESI-MS/MS reaction monitoring parameters of AQ analytes in positive ionization mode. […]
Six replicates per sample were distributed evenly across the plate, with every row containing one replicate of each sample. The well plate was covered with the peg lid. One layer of parafilm was wrapped around the biofilm inoculator. The inoculator was incubated at 37 °C, static for 24 h with a beaker of H2O ensuring humidity. Alternatively, the plate was incubated using only LB for 8 h prior to addition of DMSO/24 to give 1% DMSO, followed by another 16 h incubation under the same […]
After 24 h, the plate was removed from the incubator and the peg lid was transferred to a fresh 96 well plate (Nunc U bottom, Thermo Fisher, Dreieich, Germany) containing the respective target

[3] = tested on: Ca2+ channel (L, dihydropyridine site); experiment: Cerep panel binding assay; set-up: species or system rat; details: 10 µM, antagonist radioligand
Method: as §1, §2, §3, §4, §5
Table S6. List of binding assays within the CEREP44 off-target panel and binding data for compound

CYP2D6 = molecular target: T13, CYP2D6 (Homo sapiens, UniProt P10635); experiment: Cytochrome P450 inhibition assay, CYP2D6; assay type: in vitro ADME; details: Metabolic activity
T13 construct: Cyprotex
Method: 1.4.4 Pharmacokinetic and off-target functional assays (Cyprotex)
Compound 24 was assayed at Cyprotex in functional assays for interference with important off-targets as well as important pharmacokinetic parameters. With the exception of plasma protein binding, a dose-response relationship was studied in order to calculate IC50 values.
Table S10. Information on in vitro ADMET assays performed at Cyprotex. […]
An increase in the number of colonies of at least two-fold over baseline (mean + SD of the vehicle control) and a dose response indicate a positive response. An […]
different from the vehicle control.
Where indicated, S9 fraction from the livers of Aroclor 1254-treated rats were included in the incubation at a final concentration of 4.5%. A NADPH-regenerating system was also included to ensure a steady supply of reducing equivalents.

T9 sequence (P25021 whole entry): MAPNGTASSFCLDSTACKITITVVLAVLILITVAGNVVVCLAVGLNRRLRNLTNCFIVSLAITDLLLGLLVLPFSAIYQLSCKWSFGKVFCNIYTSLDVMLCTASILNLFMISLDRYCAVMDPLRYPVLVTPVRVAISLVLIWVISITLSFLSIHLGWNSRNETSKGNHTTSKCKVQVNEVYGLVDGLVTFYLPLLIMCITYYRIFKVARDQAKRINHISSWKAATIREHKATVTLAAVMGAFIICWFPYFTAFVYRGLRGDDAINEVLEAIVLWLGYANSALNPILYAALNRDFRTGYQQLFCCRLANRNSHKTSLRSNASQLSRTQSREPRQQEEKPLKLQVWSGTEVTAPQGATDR
T3 sequence (P07550 whole entry): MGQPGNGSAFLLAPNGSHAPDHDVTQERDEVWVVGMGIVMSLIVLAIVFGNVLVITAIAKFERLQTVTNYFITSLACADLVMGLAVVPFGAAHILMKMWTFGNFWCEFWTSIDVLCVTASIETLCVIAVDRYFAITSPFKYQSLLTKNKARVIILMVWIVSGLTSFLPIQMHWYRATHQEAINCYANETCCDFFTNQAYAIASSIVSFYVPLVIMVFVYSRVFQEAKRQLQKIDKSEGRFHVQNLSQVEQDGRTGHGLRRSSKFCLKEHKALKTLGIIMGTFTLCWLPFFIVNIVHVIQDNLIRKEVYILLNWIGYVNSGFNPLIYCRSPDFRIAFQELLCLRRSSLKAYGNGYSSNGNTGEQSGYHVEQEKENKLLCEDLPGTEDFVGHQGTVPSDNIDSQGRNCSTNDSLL
T1 sequence (P08908 whole entry): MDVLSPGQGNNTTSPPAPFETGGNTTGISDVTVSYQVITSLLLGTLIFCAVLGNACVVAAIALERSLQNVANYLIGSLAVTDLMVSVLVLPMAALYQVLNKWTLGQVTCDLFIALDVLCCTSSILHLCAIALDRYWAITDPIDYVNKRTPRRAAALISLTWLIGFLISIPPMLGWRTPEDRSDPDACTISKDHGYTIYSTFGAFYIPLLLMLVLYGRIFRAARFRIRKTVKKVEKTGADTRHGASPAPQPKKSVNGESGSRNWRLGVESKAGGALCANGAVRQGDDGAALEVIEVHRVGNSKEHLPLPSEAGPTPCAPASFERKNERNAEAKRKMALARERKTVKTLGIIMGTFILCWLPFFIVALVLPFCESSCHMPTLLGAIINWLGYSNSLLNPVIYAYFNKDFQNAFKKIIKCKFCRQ
T13 sequence (P10635 whole entry): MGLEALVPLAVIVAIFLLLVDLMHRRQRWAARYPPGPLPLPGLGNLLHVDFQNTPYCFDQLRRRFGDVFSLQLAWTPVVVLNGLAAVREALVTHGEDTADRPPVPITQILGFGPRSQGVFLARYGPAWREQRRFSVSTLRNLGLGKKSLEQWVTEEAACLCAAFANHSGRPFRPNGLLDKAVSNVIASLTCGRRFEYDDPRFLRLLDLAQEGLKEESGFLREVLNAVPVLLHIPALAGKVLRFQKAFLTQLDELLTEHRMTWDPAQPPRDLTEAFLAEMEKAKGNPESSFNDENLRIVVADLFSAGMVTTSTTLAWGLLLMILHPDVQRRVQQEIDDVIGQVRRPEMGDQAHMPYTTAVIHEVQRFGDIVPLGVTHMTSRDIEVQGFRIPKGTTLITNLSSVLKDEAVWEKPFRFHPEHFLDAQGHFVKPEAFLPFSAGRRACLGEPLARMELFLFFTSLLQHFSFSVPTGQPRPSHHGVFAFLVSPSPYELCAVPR
T6 sequence (P46098 24-478): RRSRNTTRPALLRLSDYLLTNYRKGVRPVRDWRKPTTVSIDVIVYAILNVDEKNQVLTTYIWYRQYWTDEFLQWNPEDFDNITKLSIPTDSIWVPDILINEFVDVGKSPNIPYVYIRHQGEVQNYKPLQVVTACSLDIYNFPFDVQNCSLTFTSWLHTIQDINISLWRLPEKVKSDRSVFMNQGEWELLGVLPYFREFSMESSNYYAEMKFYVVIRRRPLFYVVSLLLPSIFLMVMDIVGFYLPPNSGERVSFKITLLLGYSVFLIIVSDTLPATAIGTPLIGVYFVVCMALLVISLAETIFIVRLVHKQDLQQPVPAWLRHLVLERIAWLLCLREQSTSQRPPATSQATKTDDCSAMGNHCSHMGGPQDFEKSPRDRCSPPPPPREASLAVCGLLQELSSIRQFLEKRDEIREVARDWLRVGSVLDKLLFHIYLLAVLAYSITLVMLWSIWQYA
T11 sequence (P08588 whole entry): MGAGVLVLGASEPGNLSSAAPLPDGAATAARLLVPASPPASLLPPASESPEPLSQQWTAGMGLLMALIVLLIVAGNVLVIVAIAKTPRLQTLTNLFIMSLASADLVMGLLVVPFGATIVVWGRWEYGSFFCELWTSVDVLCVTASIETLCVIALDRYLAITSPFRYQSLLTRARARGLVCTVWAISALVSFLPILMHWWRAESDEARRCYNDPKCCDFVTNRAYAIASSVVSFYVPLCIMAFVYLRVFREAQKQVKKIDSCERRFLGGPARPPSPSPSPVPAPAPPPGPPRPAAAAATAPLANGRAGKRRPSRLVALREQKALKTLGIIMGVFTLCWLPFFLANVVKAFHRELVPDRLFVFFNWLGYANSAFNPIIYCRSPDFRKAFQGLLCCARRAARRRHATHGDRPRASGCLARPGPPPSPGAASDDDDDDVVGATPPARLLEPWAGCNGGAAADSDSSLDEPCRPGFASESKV
T4 sequence (P21728 whole entry): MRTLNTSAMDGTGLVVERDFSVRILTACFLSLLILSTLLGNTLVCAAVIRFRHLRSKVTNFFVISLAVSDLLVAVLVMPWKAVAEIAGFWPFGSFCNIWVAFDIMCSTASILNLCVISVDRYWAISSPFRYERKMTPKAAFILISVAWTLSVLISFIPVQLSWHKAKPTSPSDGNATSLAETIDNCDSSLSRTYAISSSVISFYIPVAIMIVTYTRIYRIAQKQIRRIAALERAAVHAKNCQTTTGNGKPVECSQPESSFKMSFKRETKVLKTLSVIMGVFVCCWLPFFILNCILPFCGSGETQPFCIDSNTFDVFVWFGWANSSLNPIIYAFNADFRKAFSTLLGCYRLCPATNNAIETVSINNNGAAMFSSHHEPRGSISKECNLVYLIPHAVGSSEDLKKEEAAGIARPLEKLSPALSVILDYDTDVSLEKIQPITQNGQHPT
T5 sequence (P08913 whole entry): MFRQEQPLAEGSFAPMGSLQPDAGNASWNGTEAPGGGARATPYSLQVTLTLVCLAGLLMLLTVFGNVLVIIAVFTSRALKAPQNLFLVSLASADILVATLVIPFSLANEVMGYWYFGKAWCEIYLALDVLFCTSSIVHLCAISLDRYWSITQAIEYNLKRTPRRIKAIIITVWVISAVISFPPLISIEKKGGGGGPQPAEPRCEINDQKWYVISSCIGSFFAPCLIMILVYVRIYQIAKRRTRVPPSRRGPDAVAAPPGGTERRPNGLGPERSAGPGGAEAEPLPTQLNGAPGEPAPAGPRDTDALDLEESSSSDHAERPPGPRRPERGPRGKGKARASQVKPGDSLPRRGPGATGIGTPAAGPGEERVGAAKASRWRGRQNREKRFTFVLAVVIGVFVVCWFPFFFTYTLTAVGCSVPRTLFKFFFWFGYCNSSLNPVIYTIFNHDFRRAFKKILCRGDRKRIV
T8 sequence (P28223 whole entry): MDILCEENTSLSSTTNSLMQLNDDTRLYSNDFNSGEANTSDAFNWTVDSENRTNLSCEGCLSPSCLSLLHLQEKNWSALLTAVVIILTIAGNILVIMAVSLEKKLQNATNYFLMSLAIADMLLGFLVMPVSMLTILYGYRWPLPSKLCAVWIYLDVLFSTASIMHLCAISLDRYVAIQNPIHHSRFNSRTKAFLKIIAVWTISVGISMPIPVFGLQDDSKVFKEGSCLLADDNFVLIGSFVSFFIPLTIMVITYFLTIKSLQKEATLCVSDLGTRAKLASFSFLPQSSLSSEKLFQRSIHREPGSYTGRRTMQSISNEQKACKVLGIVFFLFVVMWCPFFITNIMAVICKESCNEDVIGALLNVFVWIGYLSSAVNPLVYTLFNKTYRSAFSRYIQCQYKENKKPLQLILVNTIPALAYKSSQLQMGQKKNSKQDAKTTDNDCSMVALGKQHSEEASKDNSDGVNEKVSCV
T10 sequence (P35348 whole entry): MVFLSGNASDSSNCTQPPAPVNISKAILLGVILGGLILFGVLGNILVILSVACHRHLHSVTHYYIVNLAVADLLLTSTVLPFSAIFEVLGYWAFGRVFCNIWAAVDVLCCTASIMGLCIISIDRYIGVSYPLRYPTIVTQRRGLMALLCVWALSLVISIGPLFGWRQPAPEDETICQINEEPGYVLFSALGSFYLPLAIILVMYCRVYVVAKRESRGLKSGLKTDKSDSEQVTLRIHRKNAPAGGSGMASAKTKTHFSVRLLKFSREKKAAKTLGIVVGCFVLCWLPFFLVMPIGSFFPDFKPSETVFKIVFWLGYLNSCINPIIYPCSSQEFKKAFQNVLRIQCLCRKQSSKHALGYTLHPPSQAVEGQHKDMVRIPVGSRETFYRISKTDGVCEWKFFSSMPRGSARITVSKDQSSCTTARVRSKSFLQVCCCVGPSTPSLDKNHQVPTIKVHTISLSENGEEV
T7 sequence (P41145 whole entry): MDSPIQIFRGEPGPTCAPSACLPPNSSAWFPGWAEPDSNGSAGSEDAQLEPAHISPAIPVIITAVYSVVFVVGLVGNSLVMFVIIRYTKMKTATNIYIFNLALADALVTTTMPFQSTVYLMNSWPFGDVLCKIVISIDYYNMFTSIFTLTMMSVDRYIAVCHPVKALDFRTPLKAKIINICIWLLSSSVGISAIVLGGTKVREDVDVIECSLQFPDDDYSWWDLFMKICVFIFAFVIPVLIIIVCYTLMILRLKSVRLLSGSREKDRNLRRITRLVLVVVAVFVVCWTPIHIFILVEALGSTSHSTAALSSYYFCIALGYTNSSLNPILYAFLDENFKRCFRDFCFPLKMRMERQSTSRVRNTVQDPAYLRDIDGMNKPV

CC(C)Oc1ccc(-c2ncc(CNc3ccnc(C(F)(F)F)c3)cn2)cc1Cl [Compound 24]
inhibition at 10 µM (5-HT1A (h)): 11.3% | inhibition at 10 µM (MAO-A): 24.9% | inhibition at 10 µM (beta2 (h)): 7.9% | inhibition at 10 µM (D1 (h)): 12.2% | inhibition at 10 µM (alpha2A (h)): 8.4% | inhibition at 10 µM (5-HT3 (h)): 4.4% | inhibition at 10 µM (kappa (h) (KOP)): 23.6% | inhibition at 10 µM (5-HT2A (h)): -2.8% | inhibition at 10 µM (H2 (h)): -30% | inhibition at 10 µM (alpha1A (h)): 3.4% | inhibition at 10 µM (beta1 (h)): 7.1% | IC50 [1]: > 30 µM | IC50 ([2]; PA14, 17 h, read-out: IC50 PA14, 2‐AA biosynthesis): 386 nM | IC50 ([2]; PA14, 17 h, read-out: IC50 PA14, HHQ biosynthesis): 233 nM | IC50 ([2]; PA14, 17 h, read-out: IC50 PA14, HQNO biosynthesis): 347 nM | IC50 ([2]; PA14, 17 h, read-out: IC50 PA14, PQS biosynthesis): 349 nM | IC50 ([2]; PA14, read-out: IC50 values for individual AQs): 160 to 453 nM | BINDING (%) [3]: 75.3% and > 50% | IC50 (CYP2D6): > 25 µM
